Data on six compounds can be found in PMC4240011 (Drug delivery and translational research, 2014).

Data set [1] concerns UGT (curcumin glucuronidation, mouse liver microsomes). Nature of the data set: Inhibition of curcumin glucuronidation in mouse liver microsomes. Type of data set: biochemical. Particulars: inhibitor up to 10 μM, curcumin 1 μM. Background: Liver microsomes are vesicles of endoplasmic reticulum, rich in cytochrome P450 enzymes.
Data set [2] in a line: Equilibrium solubility in SMEDDS formulation. The format is physicochemical. Particulars: in SMEDDS (Cremophor EL, Carbitol, Captex 355); room temperature overnight.
The nature of data set [3]: Oral pharmacokinetic studies in mice. Particulars: silibinin 100 mg/kg with curcumin 100 mg/kg in SMEDDS. Type of data set: in vivo, mouse.
The conditions of data set [4]: cited from earlier work.
For data set [5] the following is noted: cited from earlier work. This is another data set of the same source.

With `O=C(O)c1ccccc1O` [salicylic acid], the “effect on curcumin glucuronidation / UGT activity (in words)” value in data set [1] is “slightly increased UGT activity”.
The compound `COc1cc(C2Oc3cc([C@H]4Oc5cc(O)cc(O)c5C(=O)[C@@H]4O)ccc3OC2CO)ccc1O` (stereo partly shown) [Silibinin, silibinin] showed a Solubility in data set [2] of 32.8 mg/g. For the same compound, the “time of peak silibinin plasma concentration” value in data set [3] was 30 min.
`O=c1c(O)c(-c2ccc(O)c(O)c2)oc2cc(O)cc(O)c12` [Quercetin, quercetin] displayed a Solubility in data set [2] of 34.4 mg/g.
Regarding `COc1cc(/C=C/C(=O)CC(=O)/C=C/c2ccc(O)c(OC)c2)ccc1O` [Curcumin], the Solubility in data set [2] was found to be 51.5 mg/g. Besides, in data set [4], the solubility in water was ~ 2 ng/mL. For the same compound, the bioavailability (commonly dose-corrected exposure relative to a reference, in per cent) in data set [5] is less than 2%.
Take `O=C(/C=C/C=C/c1ccc2c(c1)OCO2)N1CCCCC1` [Piperine, piperine]: the “effect on curcumin glucuronidation / UGT activity (in words)” value in data set [1] is “no inhibitory effect”. For the same compound, the Solubility in data set [2] is listed as 45.2 mg/g.
On to `O=C(O[C@@H]1Cc2c(O)cc(O)cc2O[C@@H]1c1cc(O)c(O)c(O)c1)c1cc(O)c(O)c(O)c1` [EGCG, epigallocatechin gallate], for which the “effect on curcumin glucuronidation / UGT activity (in words)” value in data set [1] is given as “slightly increased UGT activity”.
